Values of other authors, collected in patent publication US8197795B2, “Method for monitoring early treatment response” (Receptomon, LLC, priority 2004, dated 2012).

How the values were obtained:
[1] = test system: xenograft models, including colon cancer, non-small cell lung cancer (NSCLC), and prostate cancer; details: Ranson et al.
[2] = test system: NSCLC; details: NSCLC patients treated with gefitinib; Lynch et al. 2004
[3] = test system: solid, malignant tumors; details: patients with solid, Ranson et al. 2002

For `COc1cc2ncnc(Nc3ccc(F)c(Cl)c3)c2cc1OCCCN1CCOCC1` [gefitinib], the “activity in xenograft models” value [1] is given as “active”, the “patients with a rapid and often dramatic clinical response” value [2] is given as “about 10%” and the activity in patients [3] is given as “active”.
